The values that follow come from patent publication US11957687B2 (REGENERON PHARMACEUTICALS, INC., priority 2019, dated 2024).

The target of one series is HSD17B1 (Homo sapiens (Human), UniProt P14061). The series can be described thus: HSD17B1 enzymatic blocking assay. It counts as biochemical. Particulars: 25 μM Estradiol, 500 μM NAD; read-out: Inhibition of HSD17B1 IC50. The method in brief: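 Activity followed as NADH formed on estradiol oxidation, read by NADH-Glo luminescence after 1 h detection in the dark at room temperature. Compounds preincubated with enzyme 30 min at room temperature; 0.5% DMSO and no-substrate controls. IC50 fitted from luminescence.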

The target in another series is HSD17B4 (Homo sapiens (Human), UniProt P51659). The series can be described thus: HSD17B4 enzymatic blocking assay. It counts as biochemical. Particulars: 23.46 μM Estradiol, 1500 μM NAD; read-out: Inhibition of HSD17B4 IC50. As to the method: To screen compounds of the disclosure for their ability to block HSD17B4 function, an enzymatic blocking assay was performed. For the assay, HSD17B4 activity was measured by detecting NADH formation from oxidation of Estradiol using a NADH Glo luminescence assay (Promega, #Cat. No. G9062). Compounds of the disclosure were evaluated in a dose titration assay where the compounds were titrated at 10-point dose curve using an Echo-555 liquid handling dispenser. HSD17B4 (SEQ ID NO: 4, expressed in mammalian cells) was added at a final concentration of 2.5 ng/μL in a buffer containing 50 mM Tris-HCl, pH 7.5, Pluronic F-127 0.05%, Tween20 0.01%, BSA 0.01%, into a low volume white 384-well assay plate. Compounds were incubated with the enzyme for 15 min at 20° C. The assay reaction was then initiated by addition of 23.46 μM Estradiol substrate (Sigma, catalog #E2758-250MG, CAS: 50-28-2) and 1500 μM NAD co-factor, and the reaction mixture was incubated for 45 min at 20° C. DMSO at a concentration of 0.5% was used as a negative control and a ‘no substrate’ control was used a positive control in the assay. Detection reagent was then added as per manufacturer's instructions, and the plate was subsequently incubated in the dark for 1 hour at room temperature, NADH generated was detected in the luminescence mode on the Envision Perkin Elmer plate reader. The IC50 values were determined using Dotmatics analysis software.

A further series has as its target HSD17B13 (Homo sapiens (Human), UniProt Q7Z5P4). Briefly: HSD17B13 enzymatic inhibition assay (150 nM or 50 nM HSD17B13). It is filed as biochemical. Particulars: 50 nM HSD17B13; read-out: Inhibition of 50 nM of HSD17B13 IC50.
The target of another series is HSD17B2 (Homo sapiens (Human), UniProt P37059). Briefly: HSD17B2 enzymatic blocking assay. It is filed as biochemical. Particulars: 1.8 μM Estradiol, 650 μM NAD; read-out: Inhibition of HSD17B2 IC50. The essentials: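 Mammalian-expressed enzyme at 2 ng/μL in 50 mM Tris-HCl pH 7.5 with detergents/BSA, preincubated 15 min at 20° C. with compound (10-point titration). Reaction with 1.8 μM estradiol and 650 μM NAD ran 45 min at 20° C.; NADH measured by NADH-Glo luminescence and IC50 derived.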

Another series deals with HSD17B10 (Homo sapiens (Human), UniProt Q99714). The series can be described thus: HSD17B10 enzymatic blocking assay. Particulars: 25 μM Estradiol, 500 μM NAD; read-out: Inhibition of HSD17B10 IC50. It is filed as biochemical. As to the method: To screen compounds of the disclosure for their ability to block HSD17B10 function, an enzymatic blocking assay was performed. For the assay, HSD17B10 activity was measured by detecting NADH formation from oxidation of Estradiol using a NADH Glo luminescence assay (Promega, #Cat. No. G9062). Compounds of the disclosure were evaluated in a dose titration assay where the compounds were titrated at 10-point dose curve using an Echo-555 liquid handling dispenser. HSD17B10 (Seq. ID NO: 5, expressed in mammalian cells) was added at a final concentration of 31.25 ng/well in a buffer containing 0.2M Tris-HCl, pH 7.5, into a low volume white 384-well assay plate. Compounds were incubated with the enzyme for 30 minutes at room temperature. The assay reaction was then initiated by addition of 25 μM Estradiol substrate (Sigma, catalog #E2758-250MG, CAS: 50-28-2) and 500 μM NAD co-factor, and the reaction mixture was incubated for 3 hours at room temperature. DMSO at a concentration of 0.5% was used as a negative control and a ‘no substrate’ control was used a positive control in the assay. Detection reagent was then added as per manufacturer's instructions, and the plate was subsequently incubated in the dark for 1 hour at room temperature, NADH generated was detected in the luminescence mode on the Envision Perkin Elmer plate reader. The IC50 values were determined using Dotmatics analysis software.

Series [1] can be described thus: Microsome stability assay, human liver microsomes. The settings on record: 1 μM compound, 0.5 mg/mL microsomal protein; for microsomal CLint at 1 h, 1 µM / half-life at 1 h, 1 µM / microsomal CLint at 1 μM / half-life at 1 μM: human, human liver microsomes, pooled, NADPH, 37° C.; for microsomal CLint at 1 h, 1 µM / microsomal CLint at 1 μM: read-out: Microsome Stability Human liver microsomes Cl; for half-life at 1 h, 1 µM / half-life at 1 μM: read-out: Microsome Stability Human liver microsomes T½. It counts as in vitro ADME. The essentials:
(§1)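 Compound at 1 μM incubated at 37° C with pooled human or mouse liver microsomes (0.5 mg/mL protein) plus NADPH regenerating system, sampled at 0–60 min; a 60-min no-NADPH incubation also included. Single replicate; LC/MS/MS disappearance from analyte/internal standard peak area ratios, without standard curve.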

The nature of series [2]: Microsome stability assay, mouse liver microsomes. It counts as in vitro ADME. The settings on record: 1 μM compound, 0.5 mg/mL microsomal protein. The method in brief: as §1
The mark [3] stands for this setting: mouse, mouse liver microsomes, pooled, NADPH, 37° C., read-out: Microsome Stability Mouse liver microsomes Cl.
Setting [4] is: mouse, mouse liver microsomes, pooled, NADPH, 37° C., read-out: Microsome Stability Mouse liver microsomes T½.

Sequence of HSD17B13 (Q7Z5P4 other isoform, or with tags, fused parts or gaps): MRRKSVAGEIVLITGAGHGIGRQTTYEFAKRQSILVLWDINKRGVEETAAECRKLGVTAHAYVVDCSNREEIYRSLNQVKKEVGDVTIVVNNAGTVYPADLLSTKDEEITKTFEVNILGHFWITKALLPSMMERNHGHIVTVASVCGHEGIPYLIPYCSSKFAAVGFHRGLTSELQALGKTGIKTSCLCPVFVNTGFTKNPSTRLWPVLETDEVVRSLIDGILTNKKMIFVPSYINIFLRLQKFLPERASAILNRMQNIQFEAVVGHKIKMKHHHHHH
Sequence of HSD17B4 (P51659 other isoform, or with tags, fused parts or gaps): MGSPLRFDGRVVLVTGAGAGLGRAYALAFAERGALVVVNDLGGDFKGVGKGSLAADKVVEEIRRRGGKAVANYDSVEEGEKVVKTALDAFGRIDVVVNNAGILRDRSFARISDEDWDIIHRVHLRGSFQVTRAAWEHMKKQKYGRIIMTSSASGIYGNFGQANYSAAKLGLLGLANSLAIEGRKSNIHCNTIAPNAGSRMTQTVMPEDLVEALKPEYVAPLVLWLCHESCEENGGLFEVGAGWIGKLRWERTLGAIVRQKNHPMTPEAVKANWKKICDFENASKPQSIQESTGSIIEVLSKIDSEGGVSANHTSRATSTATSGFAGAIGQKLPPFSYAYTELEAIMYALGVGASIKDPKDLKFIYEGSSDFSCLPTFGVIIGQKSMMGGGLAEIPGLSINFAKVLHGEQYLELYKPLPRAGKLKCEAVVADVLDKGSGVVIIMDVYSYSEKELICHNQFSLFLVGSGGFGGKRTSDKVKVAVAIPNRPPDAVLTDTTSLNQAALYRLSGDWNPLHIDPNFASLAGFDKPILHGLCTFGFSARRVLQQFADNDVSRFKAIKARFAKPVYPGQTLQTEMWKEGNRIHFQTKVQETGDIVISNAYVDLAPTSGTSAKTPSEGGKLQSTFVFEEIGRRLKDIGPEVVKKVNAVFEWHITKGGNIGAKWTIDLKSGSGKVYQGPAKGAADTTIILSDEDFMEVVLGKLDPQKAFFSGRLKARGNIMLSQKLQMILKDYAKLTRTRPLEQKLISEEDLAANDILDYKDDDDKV
Sequence of HSD17B1 (P14061 other isoform, or with tags, fused parts or gaps): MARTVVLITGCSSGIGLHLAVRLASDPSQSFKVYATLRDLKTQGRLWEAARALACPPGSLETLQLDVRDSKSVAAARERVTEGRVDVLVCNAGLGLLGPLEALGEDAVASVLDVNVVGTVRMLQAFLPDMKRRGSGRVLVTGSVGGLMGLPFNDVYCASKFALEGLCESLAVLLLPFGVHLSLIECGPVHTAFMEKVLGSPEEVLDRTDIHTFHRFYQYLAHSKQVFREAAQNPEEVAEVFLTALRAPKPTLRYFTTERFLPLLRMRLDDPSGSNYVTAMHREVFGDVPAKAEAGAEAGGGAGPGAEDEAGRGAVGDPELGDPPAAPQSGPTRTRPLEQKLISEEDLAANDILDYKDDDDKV
Sequence of HSD17B10 (Q99714 other isoform, or with tags, fused parts or gaps): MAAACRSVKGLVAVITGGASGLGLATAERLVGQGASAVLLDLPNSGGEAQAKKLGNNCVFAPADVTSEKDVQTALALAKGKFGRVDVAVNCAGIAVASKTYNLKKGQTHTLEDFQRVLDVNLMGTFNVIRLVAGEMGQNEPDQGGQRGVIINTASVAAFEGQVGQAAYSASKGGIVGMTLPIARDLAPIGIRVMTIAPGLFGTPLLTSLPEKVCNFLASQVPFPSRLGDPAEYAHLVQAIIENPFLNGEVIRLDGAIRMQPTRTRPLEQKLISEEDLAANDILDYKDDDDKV
Sequence of HSD17B2 (P37059 other isoform, or with tags, fused parts or gaps): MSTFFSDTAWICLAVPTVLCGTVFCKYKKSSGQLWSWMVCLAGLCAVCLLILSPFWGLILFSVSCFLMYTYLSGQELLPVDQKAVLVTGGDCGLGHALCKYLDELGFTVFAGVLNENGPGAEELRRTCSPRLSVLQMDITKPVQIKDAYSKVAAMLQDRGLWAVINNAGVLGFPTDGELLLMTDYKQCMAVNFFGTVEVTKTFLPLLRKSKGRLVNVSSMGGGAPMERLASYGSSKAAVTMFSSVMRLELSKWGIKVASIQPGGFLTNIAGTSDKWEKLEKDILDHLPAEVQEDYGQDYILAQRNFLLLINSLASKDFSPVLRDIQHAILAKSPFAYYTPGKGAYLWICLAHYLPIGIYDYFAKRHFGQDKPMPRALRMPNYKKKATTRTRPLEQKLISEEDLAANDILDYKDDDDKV

With `O=C(NC1c2ccccc2Oc2cc(Cl)ccc21)c1ccc(C(F)(F)F)[nH]c1=O` (centres unmarked) [Compound 15A, N-(3-chloro-9H-xanthen-9-yl)-2-oxo-6-(trifluoromethyl)-1,2-dihydropyridine-3-carboxamide], the IC50 on HSD17B1 was 3.9 µM; on HSD17B4 it was greater than 100 µM; on HSD17B13, 0.16 µM; on HSD17B2, 6.33 µM; at HSD17B10, greater than 30 µM.
The like results for `Cc1ccc2c(c1)Oc1cccc(C)c1C2NC(=O)c1ccc(C(F)(F)F)[nH]c1=O` (centres unmarked) [Compound 53, N-(1,6-dimethyl-9H-xanthen-9-yl)-2-oxo-6-(trifluoromethyl)-1,2-dihydropyridine-3-carboxamide] were, in that order, 3.69 µM, 47.1 µM, 0.31 µM, 10.7 µM and greater than 30 µM.
The matching figures for `Cc1ccc2c(c1)Oc1ccccc1C2NC(=O)c1ccc(C(F)(F)F)[nH]c1=O` (centres unmarked) [Compound 55, N-(3-methyl-9H-xanthen-9-yl)-2-oxo-6-(trifluoromethyl)-1,2-dihydropyridine-3-carboxamide]: 4.65 µM, greater than 100 µM, 0.18 µM, 9.15 µM and greater than 30 µM.
Turning to `O=C(NC(c1ccccc1)c1ccc2c(c1)CCCC2)c1ccc(C(F)(F)F)[nH]c1=O` (centres unmarked) [Compound 80, N-(phenyl(5,6,7,8-tetrahydronaphthalen-2-yl)methyl)-2-oxo-6-(trifluoromethyl)-1,2-dihydropyridine-3-carboxamide], the IC50 on HSD17B1 was 3.65 µM; at HSD17B4, 48.7 µM; on HSD17B13, 0.36 µM; at HSD17B2, 8.91 µM; on HSD17B10, greater than 30 µM.
On to `O=C(NC(c1ccccc1)c1ccc(-c2cccnc2)cc1)c1ccc(C(F)(F)F)[nH]c1=O` (centres unmarked) [Compound 93, N-(phenyl(4-(pyridin-3-yl)phenyl)methyl)-2-oxo-6-(trifluoromethyl)-1,2-dihydropyridine-3-carboxamide], for which the 50% inhibitory concentration (IC50) at HSD17B1 was 15.6 µM; on HSD17B4, 66.2 µM; at HSD17B13, 0.6 µM; on HSD17B2 it was 10.7 µM; at HSD17B10, greater than 30 µM.
As for `O=C(NC(c1ccccc1)c1ccc2c(c1)COC2)c1ccc(C(F)(F)F)[nH]c1=O` (centres unmarked) [Compound 94, N-((1,3-dihydroisobenzofuran-5-yl)(phenyl)methyl)-2-oxo-6-(trifluoromethyl)-1,2-dihydropyridine-3-carboxamide], the IC50 on HSD17B1 is 11.3 µM; at HSD17B4, 96.6 µM; on HSD17B2 it was 18.8 µM; on HSD17B10, greater than 30 µM.
Turning to `CCCC1Cc2cc(C)ccc2C(NC(=O)c2ccc(C(F)(F)F)[nH]c2=O)C1` (centres unmarked) [Compound 387, N-(6-methyl-3-propyl-1,2,3,4-tetrahydronaphthalen-1-yl)-2-oxo-6-(trifluoromethyl)-1,2-dihydropyridine-3-carboxamide], the IC50 on HSD17B1 is greater than 30 µM; at HSD17B13, 0.05 µM; at HSD17B2, 27.7 µM. Besides, in series [1], the “Microsome Stability Human liver microsomes % Remaining @60 min” value was 2.70%. Besides, the microsomal CLint at 1 h, 1 µM in series [1] was found to be 112 µL/min/mg; in series [2] (setting [3]), 52 µL/min/mg. The values for the half-life at 1 h, 1 µM in series [1] and in series [2] (setting [4]) were 12.3 min and 26.6 min, respectively. Also, in series [2], the “Microsome Stability Mouse liver microsomes % Remaining @60 min” value is 21.60%.
For the compound `CCC1Cc2cc(C)ccc2C(NC(=O)c2ccc(C(F)(F)F)[nH]c2=O)C1` (centres unmarked) [Compound 388, N-(3-ethyl-6-methyl-1,2,3,4-tetrahydronaphthalen-1-yl)-2-oxo-6-(trifluoromethyl)-1,2-dihydropyridine-3-carboxamide], the IC50 on HSD17B1 is greater than 30 µM; at HSD17B13 it was 0.05 µM; at HSD17B2, 25.8 µM. The “Microsome Stability Human liver microsomes % Remaining @60 min” value in series [1] is reported as 10%. Besides, the microsomal CLint at 1 h, 1 µM in series [1] is 150 µL/min/mg; in series [2] (setting [3]) it was 47.4 µL/min/mg. Besides, the half-life at 1 h, 1 µM was 9.26 min in series [1] and 29.2 min in series [2] (setting [4]). Besides, in series [2], the “Microsome Stability Mouse liver microsomes % Remaining @60 min” value is given as 24.60%.
For the compound `Cc1ccc2c(c1)OCCC2NC(=O)c1ccc(C(F)(F)F)[nH]c1=O` (centres unmarked) [Compound 441, N-(7-methylchroman-4-yl)-2-oxo-6-(trifluoromethyl)-1,2-dihydropyridine-3-carboxamide], the IC50 at HSD17B1 was greater than 30 µM. Further, the IC50 at HSD17B13 was 2.19 µM. On HSD17B2, the IC50 was 11.2 µM. Besides, in series [1], the “Microsome Stability Human liver microsomes % Remaining @60 min” value was found to be 45%, the microsomal CLint at 1 μM turned out to be 26.4 µL/min/mg and the half-life at 1 μM came out at 52.5 min. The “Microsome Stability Mouse liver microsomes % Remaining @60 min” value in series [2] was 74%. For the same compound, in series [2] (setting [3]), the microsomal CLint at 1 h, 1 µM is 10.2 µL/min/mg. Also, the half-life at 1 h, 1 µM in series [2] (setting [4]) was determined as 135 min.
Turning to `Cc1cccc(C(NC(=O)c2ccc(C(F)(F)F)[nH]c2=O)c2ccccc2)c1` (centres unmarked) [Compound 490, 2-oxo-N-(phenyl(m-tolyl)methyl)-6-(trifluoromethyl)-1,2-dihydropyridine-3-carboxamide], the IC50 at HSD17B1 is greater than 30 µM; at HSD17B13, 0.59 µM; at HSD17B2, 16.1 µM. In addition, in series [1], the “Microsome Stability Human liver microsomes % Remaining @60 min” value came to 1%. In addition, the values for the microsomal CLint at 1 h, 1 µM in series [1] and in series [2] (setting [3]) were 203 µL/min/mg and 140 µL/min/mg, respectively. Also, the figures for the half-life at 1 h, 1 µM in series [1] and in series [2] (setting [4]) were 6.83 min and 9.87 min, respectively. The “Microsome Stability Mouse liver microsomes % Remaining @60 min” value in series [2] is recorded as 1.60%.
With `Nc1cccc2c1CCCC2NC(=O)c1ccc(C(F)(F)F)[nH]c1=O` (centres unmarked) [Compound 533, N-(5-amino-1,2,3,4-tetrahydronaphthalen-1-yl)-2-oxo-6-(trifluoromethyl)-1,2-dihydropyridine-3-carboxamide], the values for the IC50 on HSD17B1, on HSD17B13 and at HSD17B2 were greater than 30 µM, 0.68 µM and 72.7 µM, respectively. In addition, the “Microsome Stability Human liver microsomes % Remaining @60 min” value in series [1] was 88.90%. The microsomal CLint at 1 μM in series [1] and in series [2] (setting [3]) was less than 9.6 µL/min/mg each time. For the same compound, the half-life at 1 μM in series [1] and in series [2] (setting [4]) was greater than 145 min throughout. Further, the “Microsome Stability Mouse liver microsomes % Remaining @60 min” value in series [2] came out at 90.20%.
